System: 633275-114-R-J1-PDC complex spheroids, viability
Experiment: Anticancer human tumor 633275-114-R-J1-PDC patient-derived endometrial adenocarcinoma cell line growth inhibition [GQUAD]
Conditions: for IC50: curve of first compound; for viability, T/C: stronger effect = lower value
Outline: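 Viability of tumor cells grown as complex spheroids with endothelial and stromal cells, exposed to drug combinations. Top concentration at or near clinical Cmax (else 10 microM), diluted in half-log increments.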

[1] = second compound 0.0316 µM, first compound 0.0316 µM
[2] = second compound 0.0316 µM, first compound 0.1 µM
[3] = second compound 0.0316 µM, first compound 0.316 µM
[4] = second compound 0.0316 µM, first compound 1 µM
[5] = second compound 0.0316 µM, first compound 3.16 µM
[6] = second compound 0.0316 µM, first compound 10 µM
[7] = second compound 0.1 µM, first compound 0.0316 µM
[8] = second compound 0.1 µM, first compound 0.1 µM
[9] = second compound 0.1 µM, first compound 0.316 µM
[10] = second compound 0.1 µM, first compound 1 µM
[11] = second compound 0.1 µM, first compound 3.16 µM
[12] = second compound 0.1 µM, first compound 10 µM
[13] = second compound 0.316 µM, first compound 0.0316 µM
[14] = second compound 0.316 µM, first compound 0.1 µM
[15] = second compound 0.316 µM, first compound 0.316 µM
[16] = second compound 0.316 µM, first compound 1 µM
[17] = second compound 0.316 µM, first compound 3.16 µM
[18] = second compound 0.316 µM, first compound 10 µM
[19] = second compound 1 µM, first compound 0.0316 µM
[20] = second compound 1 µM, first compound 0.1 µM
[21] = second compound 1 µM, first compound 0.316 µM
[22] = second compound 1 µM, first compound 1 µM
[23] = second compound 1 µM, first compound 3.16 µM
[24] = second compound 1 µM, first compound 10 µM
[25] = second compound 3.16 µM, first compound 0.0316 µM
[26] = second compound 3.16 µM, first compound 0.1 µM
[27] = second compound 3.16 µM, first compound 0.316 µM
[28] = second compound 3.16 µM, first compound 1 µM
[29] = second compound 3.16 µM, first compound 3.16 µM
[30] = second compound 3.16 µM, first compound 10 µM
[31] = second compound 10 µM, first compound 0.0316 µM
[32] = second compound 10 µM, first compound 0.1 µM
[33] = second compound 10 µM, first compound 0.316 µM
[34] = second compound 10 µM, first compound 1 µM
[35] = second compound 10 µM, first compound 3.16 µM
[36] = second compound 10 µM, first compound 10 µM
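Also: spheroids exposed to the agents for seven days.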
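For viability, T/C in this document: percent of DMSO vehicle control viability which is 100%.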

Molecule C=CC(=O)N1CCN(c2nc(=O)n(-c3c(C)ccnc3C(C)C)c3nc(-c4c(O)cccc4F)c(F)cc23)C(C)C1 (stereo unspecified) + Cc1cnc(CNC(=O)c2c(=O)c3ccc(N4CCCN(C)CC4)nc3n3c2sc2ccccc23)cn1 has an IC50 (second compound 0.0316 µM) of over 10000 nM, an IC50 (second compound 0.1 µM) of over 10000 nM and an IC50 (second compound 0.316 µM) of under 31.6 nM. The IC50 (second compound 1 µM) was under 31.6 nM, the IC50 (second compound 3.16 µM) was under 31.6 nM and the IC50 (second compound 10 µM) was under 31.6 nM. The viability, T/C [1] was 67.1%, the viability, T/C [2] was 62.3% and the viability, T/C [3] was 78.3%. For the same molecule, the viability, T/C [4] was 69%, the viability, T/C [5] was 65.4% and the viability, T/C [6] was 68.1%. The viability, T/C [7] was 57.4%, the viability, T/C [8] was 57.8% and the viability, T/C [9] was 55.4%. It also gave a viability, T/C [10] of 57%, a viability, T/C [11] of 59.8% and a viability, T/C [12] of 51.6%. The viability, T/C [13] was 46.8%, the viability, T/C [14] was 44.9% and the viability, T/C [15] was 47.6%. The viability, T/C [16] was 53.5%, the viability, T/C [17] was 54.1% and the viability, T/C [18] was 46.8%. For the same molecule, the viability, T/C [19] was 41.6%, the viability, T/C [20] was 48.2% and the viability, T/C [21] was 45.7%. For the same molecule, the viability, T/C [22] was 42.9%, the viability, T/C [23] was 47.7% and the viability, T/C [24] was 41%. For the same molecule, the viability, T/C [25] was 37.3%, the viability, T/C [26] was 36.5% and the viability, T/C [27] was 39.4%. It also gave a viability, T/C [28] of 42.6%, a viability, T/C [29] of 42.4% and a viability, T/C [30] of 37.6%. The viability, T/C [31] was 32.3%, the viability, T/C [32] was 34.1% and the viability, T/C [33] was 34%. It also gave a viability, T/C [34] of 35.9%, a viability, T/C [35] of 39.7% and a viability, T/C [36] of 30.2%.
With CC1COCCN1c1cc(-c2ccnn2C)c2ccnc(-c3ccn[nH]3)c2n1 (stereo unspecified) + Cc1cnc(CNC(=O)c2c(=O)c3ccc(N4CCCN(C)CC4)nc3n3c2sc2ccccc23)cn1 the IC50 (second compound 0.0316 µM) was under 31.6 nM, the IC50 (second compound 0.1 µM) was under 31.6 nM and the IC50 (second compound 0.316 µM) was under 31.6 nM. For the same molecule, the IC50 (second compound 1 µM) was under 31.6 nM, the IC50 (second compound 3.16 µM) was under 31.6 nM and the IC50 (second compound 10 µM) was under 31.6 nM. It also gave a viability, T/C [1] of 43.9%, a viability, T/C [2] of 32.6% and a viability, T/C [3] of 29.8%. The viability, T/C [4] was 25.8%, the viability, T/C [5] was 18.7% and the viability, T/C [6] was 14.7%. For the same molecule, the viability, T/C [7] was 42.2%, the viability, T/C [8] was 37.7% and the viability, T/C [9] was 30.2%. The viability, T/C [10] was 22.6%, the viability, T/C [11] was 17.3% and the viability, T/C [12] was 14.9%. It also gave a viability, T/C [13] of 38.8%, a viability, T/C [14] of 38.2% and a viability, T/C [15] of 30.6%. The viability, T/C [16] was 24%, the viability, T/C [17] was 17.5% and the viability, T/C [18] was 10.9%. The viability, T/C [19] was 36.9%, the viability, T/C [20] was 36.6% and the viability, T/C [21] was 29.1%. For the same molecule, the viability, T/C [22] was 22.2%, the viability, T/C [23] was 15.4% and the viability, T/C [24] was 11.1%. For the same molecule, the viability, T/C [25] was 33.6%, the viability, T/C [26] was 29.1% and the viability, T/C [27] was 25%. For the same molecule, the viability, T/C [28] was 20.8%, the viability, T/C [29] was 13.3% and the viability, T/C [30] was 9.84%. The viability, T/C [31] was 28.5%, the viability, T/C [32] was 24.7% and the viability, T/C [33] was 23.4%. It also gave a viability, T/C [34] of 18.4%, a viability, T/C [35] of 14.4% and a viability, T/C [36] of 8.93%.
CC1COCCN1c1cc(C2(S(C)(=N)=O)CC2)nc(-c2ccnc3[nH]ccc23)n1 (stereo unspecified) + Cc1cnc(CNC(=O)c2c(=O)c3ccc(N4CCCN(C)CC4)nc3n3c2sc2ccccc23)cn1 was tested, and the IC50 (second compound 0.0316 µM) was 1600 nM, the IC50 (second compound 0.1 µM) was under 31.6 nM and the IC50 (second compound 0.316 µM) was under 31.6 nM. The IC50 (second compound 1 µM) was under 31.6 nM, the IC50 (second compound 3.16 µM) was under 31.6 nM and the IC50 (second compound 10 µM) was under 31.6 nM. It also gave a viability, T/C [1] of 67.5%, a viability, T/C [2] of 64.5% and a viability, T/C [3] of 59.1%. The viability, T/C [4] was 49.6%, the viability, T/C [5] was 50.2% and the viability, T/C [6] was 29.7%. The viability, T/C [7] was 51.9%, the viability, T/C [8] was 47.3% and the viability, T/C [9] was 49.1%. The viability, T/C [10] was 41.5%, the viability, T/C [11] was 44.7% and the viability, T/C [12] was 27.4%. The viability, T/C [13] was 47.5%, the viability, T/C [14] was 46% and the viability, T/C [15] was 43.4%. It also gave a viability, T/C [16] of 41.1%, a viability, T/C [17] of 35.7% and a viability, T/C [18] of 24.4%. It also gave a viability, T/C [19] of 37.8%, a viability, T/C [20] of 40.3% and a viability, T/C [21] of 35.7%. For the same molecule, the viability, T/C [22] was 37.8%, the viability, T/C [23] was 39% and the viability, T/C [24] was 27%. It also gave a viability, T/C [25] of 33.5%, a viability, T/C [26] of 34% and a viability, T/C [27] of 32.2%. The viability, T/C [28] was 30.6%, the viability, T/C [29] was 31.1% and the viability, T/C [30] was 22.7%. The viability, T/C [31] was 33.8%, the viability, T/C [32] was 28.8% and the viability, T/C [33] was 31.5%. It also gave a viability, T/C [34] of 29.1%, a viability, T/C [35] of 33.6% and a viability, T/C [36] of 23.9%.
